Source: patent US11365199B2, “Pyrazole compounds as modulators of FSHR and uses thereof” (Merck Patent GmbH, priority 2013, dated 2022)

What was measured:
FSHR = target: T1, FSHR (Homo sapiens, UniProt P23945); experiment: EC50 of cyclic AMP production in CHO FSHR cells + EC20 FSH (Assay A); format: cell-based; settings: CHO FSHR cells + EC20 FSH, cAMP HTRF; read-out: Assay A: EC50 of cyclic AMP production
T1 construct: expressed in transfected cells; host or cells: CHO (Cho-FSHR-LUC-1-1-43)
T1 sequence (P23945 18-695): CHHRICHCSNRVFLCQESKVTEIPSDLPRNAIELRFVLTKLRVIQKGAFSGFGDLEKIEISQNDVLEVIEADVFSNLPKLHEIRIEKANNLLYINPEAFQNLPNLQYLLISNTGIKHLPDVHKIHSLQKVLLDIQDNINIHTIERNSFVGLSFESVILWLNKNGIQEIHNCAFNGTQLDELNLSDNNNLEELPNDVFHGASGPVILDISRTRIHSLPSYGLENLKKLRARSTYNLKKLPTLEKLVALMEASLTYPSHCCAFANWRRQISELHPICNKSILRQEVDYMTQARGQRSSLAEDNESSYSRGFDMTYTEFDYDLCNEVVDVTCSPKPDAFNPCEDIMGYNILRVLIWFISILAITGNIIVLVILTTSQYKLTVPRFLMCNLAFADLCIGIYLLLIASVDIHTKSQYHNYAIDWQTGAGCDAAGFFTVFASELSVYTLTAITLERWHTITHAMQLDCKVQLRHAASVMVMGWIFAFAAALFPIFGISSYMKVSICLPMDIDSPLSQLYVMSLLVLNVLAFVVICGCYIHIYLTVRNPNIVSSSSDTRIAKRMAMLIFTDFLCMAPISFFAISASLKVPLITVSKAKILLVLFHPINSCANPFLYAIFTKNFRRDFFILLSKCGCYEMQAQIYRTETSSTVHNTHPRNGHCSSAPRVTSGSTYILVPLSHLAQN
Summary of the method: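 Cho-FSHR-LUC cells were exposed to compound dilution series with EC20 FSH ([…]) and 200 μM IBMX for 1 h at 37° C. cAMP was read by HTRF (665/620 nm ratio). Effects are percent of the maximal FSH standard response.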

[1] = target: T2, follicle-stimulating hormone (FSH) receptor (Rattus norvegicus, UniProt P20395); experiment: Rat granulosa EC50 FSH (Assay B); format: cell-based; settings: rat granulosa cells; read-out: Assay B: Rat granulosa EC50 FSH
T2 construct: endogenous in cells; host or cells: primary rat granulosa cells
T2 sequence (P20395 18-692): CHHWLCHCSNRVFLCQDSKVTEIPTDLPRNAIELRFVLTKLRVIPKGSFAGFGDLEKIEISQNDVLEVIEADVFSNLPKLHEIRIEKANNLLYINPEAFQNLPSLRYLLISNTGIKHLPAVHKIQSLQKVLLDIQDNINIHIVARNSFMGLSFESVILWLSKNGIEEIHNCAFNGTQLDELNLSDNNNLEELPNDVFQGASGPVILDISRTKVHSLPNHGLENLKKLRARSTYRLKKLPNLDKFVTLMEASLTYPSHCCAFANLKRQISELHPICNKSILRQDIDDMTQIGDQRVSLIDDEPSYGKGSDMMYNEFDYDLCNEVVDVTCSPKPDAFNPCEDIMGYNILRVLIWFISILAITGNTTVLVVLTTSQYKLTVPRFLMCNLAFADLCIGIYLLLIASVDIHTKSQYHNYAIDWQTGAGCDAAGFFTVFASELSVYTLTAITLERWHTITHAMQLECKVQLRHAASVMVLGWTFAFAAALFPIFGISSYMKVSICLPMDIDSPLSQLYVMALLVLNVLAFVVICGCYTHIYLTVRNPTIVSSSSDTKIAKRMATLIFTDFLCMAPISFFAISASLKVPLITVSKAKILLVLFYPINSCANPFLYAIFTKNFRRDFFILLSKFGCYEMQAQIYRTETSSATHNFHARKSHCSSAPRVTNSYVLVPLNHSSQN
Method: Rat Granulosa EC50 FSH (Assay B)
The assay was performed pursuant to the teaching of Yanofsky et al. (2006) Allosteric activation of the follicle-stimulating hormone (FSH) receptor by selective, nonpeptide agonists (JBC 281(19): 13226-13233, which is incorporated by reference in the disclosure of the invention).

SMILES | EC50 (FSHR) [nM] | EC50 [1] [nM]
COc1cc2c(cc1-c1cnn(C(=O)OC(C)(C)C)c1)-c1c(c(C(=O)N(C)C(C)(C)C)nn1-c1ccsc1)CO2 [Compound 20, 4-[3-(tert-Butyl-methyl-carbamoyl)-7-methoxy-1-thiophen-3-yl-1,4-dihydro-chromeno[4,3-c]pyrazol-8-yl]-pyrazole-1-carboxylic acid tert-butyl ester] | 100 to 1000 | 100 to 1000
COc1cc2c(cc1C=C(C)C)-c1c(c(C(=O)NCCN3CCOC3=O)nn1-c1ccsc1)CO2 [Compound 13, 7-Methoxy-8-(2-methyl-propenyl)-1-thiophen-3-yl-1,4-dihydro-chromeno[4,3-c]pyrazole-3-carboxylic acid [2-(2-oxo-oxazolidin-3-yl)-ethyl]-amide] | 100 to 1000 | 1000 to 5000
COc1cc2c(cc1C=C(C)C)-c1c(c(C(=O)NC(C)(C)CO)nn1-c1ccsc1)CO2 [Compound 10, 7-Methoxy-8-(2-methyl-propenyl)-1-thiophen-3-yl-1,4-dihydro-chromeno[4,3-c]pyrazole-3-carboxylic acid (2-hydroxy-1,1-dimethyl-ethyl)-amide] | 100 to 1000 | 1000 to 5000
COc1cc2c(cc1C1CCCO1)-c1c(c(C(=O)N(C)C(C)(C)C)nn1-c1ccsc1)CO2 (stereo not drawn) [Compound 201, 7-Methoxy-8-(tetrahydro-furan-2-yl)-1-thiophen-3-yl-1,4-dihydro-chromeno[4,3-c]pyrazole-3-carboxylic Acid tert-butyl-methyl-amide] | 100 to 1000 | 1000 to 5000
COc1cc2c(cc1C1=CCOCC1)-c1c(c(C(=O)N3CCOCC3(C)C)nn1-c1ccsc1)CO2 [Compound 189, [8-(3,6-Dihydro-2H-pyran-4-yl)-7-methoxy-1-thiophen-3-yl-1,4-dihydro-chromeno[4,3-c]pyrazol-3-yl]-(3,3-dimethyl-morpholin-4-yl)-methanone] | < 100 | < 100
COc1cc2c(cc1-c1cnn(CCN3CCOCC3)c1)-c1c(c(C(=O)N3CCOCC3(C)C)nn1-c1ccsc1)CO2 [Compound 202, (3,3-Dimethyl-morpholin-4-yl)-{7-methoxy-8-[1-(2-morpholin-4-yl-ethyl)-1H-pyrazol-4-yl]-1-thiophen-3-yl-1,4-dihydro-chromeno[4,3-c]pyrazol-3-yl}-methanone] | 100 to 1000 | 100 to 1000
COc1cc2c(cc1-c1ncco1)-c1c(c(C(=O)N(C)C(C)(C)C)nn1-c1ccsc1)CO2 [Compound 132, 7-Methoxy-8-oxazol-2-yl-1-thiophen-3-yl-1,4-dihydro-chromeno[4,3-c]pyrazole-3-carboxylic acid tert-butyl-methyl-amide] | < 100 | 100 to 1000
COc1cc2c(cc1-c1ccnn1C)-c1c(c(C(=O)N3CCOCC3(C)C)nn1-c1ccsc1)CO2 [Compound 108, (3,3-Dimethyl-morpholin-4-yl)-[7-methoxy-8-(2-methyl-2H-pyrazol-3-yl)-1-thiophen-3-yl-1,4-dihydro-chromeno[4,3-c]pyrazol-3-yl]-methanone] | < 100 | 1000 to 5000
COc1cc2c(cc1CC(C)C)-c1c(c(C(=O)N3CCCN(C(=O)C4CCCO4)CC3)nn1-c1ccsc1)CO2 (stereo not drawn) [Compound 21, (8-Isobutyl-7-methoxy-1-thiophen-3-yl-1,4-dihydro-chromeno[4,3-c]pyrazol-3-yl)-[4-(tetrahydro-furan-2-carbonyl)-[1,4]diazepan-1-yl]-methanone] | 100 to 1000 | > 5000

Second part, the molecule after the results:

EC50 (FSHR) [nM] | EC50 [1] [nM] | SMILES
< 100 | > 5000 | CCn1cc(-c2cc3c(cc2OC)OCc2c(C(=O)N4CCOCC4(C)C)nn(-c4ccsc4)c2-3)cn1 [Compound 210, (3,3-Dimethyl-morpholin-4-yl)-[8-(1-ethyl-1H-pyrazol-4-yl)-7-methoxy-1-thiophen-3-yl-1,4-dihydro-chromeno[4,3-c]pyrazol-3-yl]-methanone]
< 100 | 100 to 1000 | COc1cc2c(cc1-c1cnn(C3CC3)c1)-c1c(c(C(=O)N3CCOCC3(C)C)nn1-c1ccsc1)CO2 [Compound 215]
< 100 | 1000 to 5000 | COc1cc2c(cc1C#N)-c1c(c(C(=O)N(C)C(C)(C)C)nn1-c1ccsc1)CO2 [Compound 12, 8-Cyano-7-methoxy-1-thiophen-3-yl-1,4-dihydro-chromeno[4,3-c]pyrazole-3-carboxylic Acid tert-butyl-methyl-amide]
< 100 | > 5000 | COc1cc2c(cc1S(=O)(=O)C(C)C)-c1c(c(C(=O)N(C)C(C)(C)C)nn1-c1ccsc1)CO2 [Compound 79, 7-methoxy-8-(propane-2-sulfonyl)-1-thiophen-3-yl-1,4-dihydro-chromeno[4,3-c]pyrazole-3-carboxylic Acid tert-butyl-methyl-amide]
< 100 | < 100 | [2H]C([2H])([2H])OCC1(C)CCCN1C(=O)c1nn(-c2ccsc2)c2c1COc1cc(OC)c(-c3ccn(C)n3)cc1-2 (stereo not drawn) [Compound 182]
< 100 | < 100 | COc1cc2c(cc1-c1ccns1)-c1c(c(C(=O)N(C)C(C)(C)C)nn1-c1ccsc1)CO2 [Compound 105, 8-Isothiazol-5-yl-7-methoxy-1-thiophen-3-yl-1,4-dihydro-chromeno[4,3-c]pyrazole-3-carboxylic acid tert-butyl-methyl-amide]
< 100 | 100 to 1000 | COc1cc2c(cc1-c1cn(C)nc1C)-c1c(c(C(=O)N(C)C(C)(C)C)nn1-c1ccsc1)CO2 [Compound 150, 8-(1,3-Dimethyl-1H-pyrazol-4-yl)-7-methoxy-1-thiophen-3-yl-1,4-dihydro-chromeno[4,3-c]pyrazole-3-carboxylic acid tert-butyl-methyl-amide]
< 100 | 100 to 1000 | COc1cc2c(cc1-c1c(C)n[nH]c1C)-c1c(c(C(=O)N3CCOCC3(C)C)nn1-c1ccsc1)CO2 [Compound 126, (3,3-Dimethyl-morpholin-4-yl)-[8-(3,5-dimethyl-1H-pyrazol-4-yl)-7-methoxy-1-thiophen-3-yl-1,4-dihydro-chromeno[4,3-c]pyrazol-3-yl]-methanone]
< 100 | 1000 to 5000 | COc1cc2c(cc1-c1cccnc1)-c1c(c(C(=O)N3CCCN(C(=O)C4CCC4)CC3)nn1-c1ccsc1)CO2 [Compound 3, (4-Cyclobutanecarbonyl-[1,4]diazepan-1-yl)-(7-methoxy-8-pyridin-3-yl-1-thiophen-3-yl-1,4-dihydro-chromeno[4,3-c]pyrazol-3-yl)-methanone]
< 100 | 100 to 1000 | COc1cc2c(cc1-c1ccc(C)s1)-c1c(c(C(=O)N(C)C(C)(C)C)nn1-c1ccsc1)CO2 [Compound 93, 7-Methoxy-8-(5-methyl-thiophen-2-yl)-1-thiophen-3-yl-1,4-dihydro-chromeno[4,3-c]pyrazole-3-carboxylic acid tert-butyl-methyl-amide]
< 100 | 100 to 1000 | [2H]C([2H])([2H])N(C(=O)c1nn(-c2ccsc2)c2c1COc1cc(OC)c(CC(C)C)cc1-2)C1(C)COC1 [Compound 163]
< 100 | 100 to 1000 | COc1cc2c(cc1-c1c[nH]nc1C)-c1c(c(C(=O)N3CCOCC3(C)C)nn1-c1ccsc1)CO2 [Compound 95, (3,3-Dimethyl-morpholin-4-yl)-[7-methoxy-8-(3-methyl-1H-pyrazol-4-yl)-1-thiophen-3-yl-1,4-dihydro-chromeno[4,3-c]pyrazol-3-yl]-methanone]
